Measurements published in PMC10028264, “Synergistic antifungal interaction of N-(butylcarbamothioyl) benzamide and amphotericin B against Cryptococcus neoformans” (Frontiers in Microbiology, 2023).

Experiments:
cryptococcal urease = biological target: T1, cryptococcal urease (Cryptococcus neoformans, UniProt O13465); test: Urease activity inhibition test (indophenol method, crude protein extract); type: biochemical
T1 construct: 100 μL of crude protein extract; endogenous in cells; host or cells: Cryptococcus neoformans ATCC 34872, crude lysate (glass-bead lysis, supernatant)
Description: Five colonies of C. neoformans were suspended in 100 μL SD broth and inoculated onto SD agar using a Drigalski spreader, and the culture was incubated at 37°C for 48 h. Afterward, all fungal growth was gently scraped and transferred to conical flasks containing 300 mL of SD broth and incubated with shaking (150 rpm) at 37°C for further 48 h. Cells were centrifuged (6,000 × g, 10 min) and washed three times with distilled water. The protein extraction was performed according to [Moller et al. (2016)] with modifications. Briefly, fungal cells were resuspended in 10 mL of chilled lysis buffer consisting of 100 μM Nα-tosyl-L-lysine chloromethyl ketone hydrochloride (TLCK), 1 mM EDTA, 10% glycerol and 0.15 M phosphate-buffered saline (PBS), pH 8.0. […] Then, the cell debris was removed by centrifugation (6,000 × g, 15 min, 4°C), and the protein content of the resulting supernatant was quantified using the […].
The inhibition of urease activity was evaluated by the indophenol method ([Weatherburn, 1967]). […] The reaction mixtures were incubated for further 10 min at 45°C, and the optical density (OD) was measured at 630 nm. Urease inhibition percentage (I%) was calculated according to the equation: I% = 100–(ODBTU–01/ODcontrol) × 100. […]

Cryptococcus neoformans = test: Fungal capsule and cell size (Chinese ink, light microscopy); type: cell-based; conditions: compared to untreated cells; ATCC 34872 and 1172; 48 h; p < 0.05
Description: For all assays, fungal cells were incubated in RPMI-MOPS (except when specified) supplemented with BTU-01 and AmB alone at MIC and MFC values or combined at the synergistic MIC values. Untreated fungal cells were considered as control.
Cryptococcus neoformans was cultivated in a minimal capsular induction medium (15 mM glucose, 10 mM MgSO4, 29.4 mM KH2PO4, 13 mM glycine and 3 μM thiamine-HCl, pH 5.5) at 37°C for 7 days ([Frases et al., 2009]). Afterward, a standard fungal suspension was prepared as described above, and the cells (1.0 × 10^7 CFU/mL) were treated with the compounds at 37°C for 48 h. Cells were collected by centrifugation (10,000 × g, 1 min), suspended in an equal volume of Chinese ink on glass slides, spread the smear evenly with coverslips, and observed with a Zeiss Axio Imager 2 microscope (Zeiss, Germany). The capsule size of 100 randomly chosen cells was measured by using the software ImageJ 1.49v.^1 The capsule thickness was determined according to [Spadari et al. (2019)], which consisted of the difference between the diameter of the cell, including the capsule, with the diameter of the body cell within the cell wall.

[1] = test system: Cryptococcus neoformans biofilm; test: Antifungal activity on sessile cells, 72-h biofilm, MTT reduction (SMIC80); type: cell-based
Description: The capacity of C. neoformans strains to form biofilm was evaluated on flat-bottomed 96-well polystyrene plates (Techno Plastic Products, Switzerland), as described by [Martinez and Casadevall (2006)]. Thus, the biofilms were formed in SD broth statically at 37°C for 24, 48, 72, 96, and 120 h, with an inoculum of 1.0 × 10^7 CFU/mL. After each incubation period, the viability of sessile cells was evaluated using the 3-(4,5-dimethylthiazol-2-yl)-2,5-diphenyltetrazolium bromide (MTT, Merck, Brazil) reduction assay according to the manufacturer’s recommendations. The assays were carried out in quintuplicate and performed on two separate occasions.
To evaluate the antifungal activity of the compounds on sessile cells, biofilms were formed for 72 h, washed with saline, and 200-μL aliquots of RPMI-MOPS containing different concentrations of BTU-01 (31.25–1000.0 μg/mL) and/or AmB (0.007–16.0 μg/mL) were added for determining the SMIC (Sessile Minimal Inhibitory Concentration). Untreated and treated biofilms were incubated at 37°C for further 24 h, and then washed with saline. The biofilm viability was analyzed by the MTT reduction assay as described above. The SMICs of BTU-01 and AmB alone and combined were determined by the lowest concentration capable of inhibiting 80% (SCIM80) of the viability of sessile cells compared to the untreated controls. The checkerboard assays were performed to analyze the effect of the combination with BTU-01 and AmB on 72-h biofilms. The results of the combination were interpreted using the FICI as described previously.

human erythrocytes = test: Hemolysis assay; type: cell-based; conditions: estimated from the highest concentration tested; all cryptococcal strains
Description: The cytotoxicity of BTU-01 (1.95–1000.0 μg/mL) alone and combined with AmB (0.015–16.0 μg/mL) was evaluated on human erythrocytes. Blood from a healthy donor was collected according to the Declaration of Helsinki principles, defibrinated and an erythrocytes suspension (3%) was prepared in 5% glycosylated saline. A total of 100 μL of the erythrocytes suspension was incubated for 3 h at 37°C in wells of U-bottom 96-well polystyrene plates containing different concentrations of the compounds. Wells without the compounds and with 1% Triton X-100 were used as negative and positive hemolysis controls, respectively. The OD of the supernatant was determined at 550 nm with a microtiter plate reader (Synergy HT, BioTek, USA). The percentage of hemolysis was calculated by comparison with the positive control ([Izumi et al., 2012]).
The concentration of BTU-01 capable of causing 90% of hemolysis/cytotoxicity was used to calculate the selectivity index (SI) using the following equation: SI = CC90/MIC.

[2] = C. neoformans 1172, treated 24 h
[3] = C. neoformans ATCC 34872, treated 24 h

T1 sequence (O13465 whole entry): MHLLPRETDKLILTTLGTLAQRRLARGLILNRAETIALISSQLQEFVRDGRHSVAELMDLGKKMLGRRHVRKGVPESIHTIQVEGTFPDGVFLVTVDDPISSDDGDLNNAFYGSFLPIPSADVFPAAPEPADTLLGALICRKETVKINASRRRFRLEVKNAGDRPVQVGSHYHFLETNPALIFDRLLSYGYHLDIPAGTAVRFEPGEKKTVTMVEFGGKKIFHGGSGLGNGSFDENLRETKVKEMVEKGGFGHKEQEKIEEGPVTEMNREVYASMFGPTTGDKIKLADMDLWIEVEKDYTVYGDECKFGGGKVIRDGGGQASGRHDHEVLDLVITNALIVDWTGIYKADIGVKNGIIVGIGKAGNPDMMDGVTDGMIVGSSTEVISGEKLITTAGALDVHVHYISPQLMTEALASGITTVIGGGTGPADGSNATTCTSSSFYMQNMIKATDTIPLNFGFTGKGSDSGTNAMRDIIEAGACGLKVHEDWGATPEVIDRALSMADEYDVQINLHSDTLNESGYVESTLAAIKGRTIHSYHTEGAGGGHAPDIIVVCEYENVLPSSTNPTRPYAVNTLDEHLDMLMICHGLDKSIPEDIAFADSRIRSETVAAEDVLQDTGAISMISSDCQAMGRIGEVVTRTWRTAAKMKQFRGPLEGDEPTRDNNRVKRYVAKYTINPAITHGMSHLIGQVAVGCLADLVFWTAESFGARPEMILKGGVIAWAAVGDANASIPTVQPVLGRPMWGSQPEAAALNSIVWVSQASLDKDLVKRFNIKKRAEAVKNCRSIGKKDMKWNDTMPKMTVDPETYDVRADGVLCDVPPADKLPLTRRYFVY

**Q.** Which IC50 (cryptococcal urease) does the source give for `CCCCNC(=S)NC(=O)c1ccccc1` [BTU-01, N-(butylcarbamothioyl) benzamide] here?
**A.** Its IC50 is 226 µM.

**Q.** And the capsule size (Cryptococcus neoformans)?
**A.** The capsule size was “significant reduction”.

**Q.** And the cell size (Cryptococcus neoformans)?
**A.** The cell size was “significant reduction”.

**Q.** And the SMIC80 [1, 2]?
**A.** The SMIC80 was > 1000.0 µg/mL.

**Q.** What about the SMIC80 [1, 3] of the same compound?
**A.** The SMIC80 was 125.0 µg/mL.

**Q.** What about the SI (human erythrocytes) of the same compound?
**A.** Its SI is “greater than 16”.

**Q.** `C[C@@H]1[C@H](O)[C@@H](C)/C=C/C=C/C=C/C=C/C=C/C=C/C=C/[C@H](O[C@@H]2O[C@H](C)[C@@H](O)[C@H](N)[C@@H]2O)C[C@@H]2O[C@](O)(C[C@@H](O)C[C@@H](O)[C@H](O)CC[C@@H](O)C[C@@H](O)CC(=O)O[C@H]1C)C[C@H](O)[C@H]2C(=O)O` [Amphotericin B, amphotericin B] was tested. Which capsule size (Cryptococcus neoformans) did it give?
**A.** Its capsule size is “significant reduction”.

**Q.** What about the cell size (Cryptococcus neoformans) of the same compound?
**A.** Its cell size is “significant reduction”.

**Q.** What about the SMIC80 [1, 2] of the same compound?
**A.** The SMIC80 was 1.0 µg/mL.

**Q.** What about the SMIC80 [1, 3] of the same compound?
**A.** The SMIC80 was 1.0 µg/mL.
